Reference: ChEMBL document CHEMBL1201862, “PubChem BioAssay data set” (2004)
Active and inactive are the calls of the source.

Tests used:
[1] = biological target: T1, Replicative DNA helicase DnaB (Mycobacterium tuberculosis, UniProt P9WMR3); assay: DnaB intein splicing inhibitors, dose response, biochemical, cell-free fluorescence (AID 449749); type: functional
T1 sequence (P9WMR3 whole entry): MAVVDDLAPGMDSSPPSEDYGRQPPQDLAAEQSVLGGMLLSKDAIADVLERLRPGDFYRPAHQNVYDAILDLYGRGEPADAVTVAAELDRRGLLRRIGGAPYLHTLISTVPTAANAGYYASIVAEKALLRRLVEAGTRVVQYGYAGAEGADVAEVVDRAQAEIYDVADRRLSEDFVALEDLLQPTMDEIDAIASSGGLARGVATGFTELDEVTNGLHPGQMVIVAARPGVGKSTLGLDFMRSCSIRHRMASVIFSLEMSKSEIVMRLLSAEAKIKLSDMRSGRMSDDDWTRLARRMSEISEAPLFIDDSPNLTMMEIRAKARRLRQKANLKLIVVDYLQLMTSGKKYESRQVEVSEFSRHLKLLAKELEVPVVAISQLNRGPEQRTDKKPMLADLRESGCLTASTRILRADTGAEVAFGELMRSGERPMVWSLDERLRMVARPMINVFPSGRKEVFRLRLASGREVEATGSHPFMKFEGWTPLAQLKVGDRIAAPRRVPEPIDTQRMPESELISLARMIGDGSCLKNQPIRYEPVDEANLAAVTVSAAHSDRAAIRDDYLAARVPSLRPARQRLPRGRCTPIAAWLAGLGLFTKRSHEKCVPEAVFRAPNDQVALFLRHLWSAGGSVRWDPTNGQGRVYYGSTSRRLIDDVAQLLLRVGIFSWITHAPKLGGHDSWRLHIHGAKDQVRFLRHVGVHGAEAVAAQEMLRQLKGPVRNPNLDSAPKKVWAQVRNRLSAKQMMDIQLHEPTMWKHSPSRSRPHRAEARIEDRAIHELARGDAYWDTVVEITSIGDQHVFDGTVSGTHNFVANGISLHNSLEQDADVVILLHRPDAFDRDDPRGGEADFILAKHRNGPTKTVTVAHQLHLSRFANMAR

[2] = biological target: Likely tRNA 2'-phosphotransferase (Candida albicans (strain SC5314 / ATCC MYA-2876) (Yeast), UniProt Q5A7N4); assay: TPT1 tRNA phosphotransferase inhibitors, dose response, biochemical, fluorescence polarization (AID 2160)
Likely tRNA 2'-phosphotransferase, sequence (Q5A7N4 whole entry): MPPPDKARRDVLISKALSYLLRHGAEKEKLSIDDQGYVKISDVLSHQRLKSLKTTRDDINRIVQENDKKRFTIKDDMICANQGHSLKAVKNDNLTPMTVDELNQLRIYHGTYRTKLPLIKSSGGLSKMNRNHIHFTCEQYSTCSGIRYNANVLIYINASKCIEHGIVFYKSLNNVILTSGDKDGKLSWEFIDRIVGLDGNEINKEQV

Protein RecA = biological target: T2, Protein RecA (Mycobacterium tuberculosis, UniProt P9WHJ3); assay: Fluorescence Cell-Free Homogeneous Dose Retest to Identify Inhibitors of RecA-Intein Splicing Activity. [Related pubchem assays (depositor defined):AID2097, AID2223, AID489010, AID492950]; type: functional
T2 sequence (P9WHJ3 whole entry): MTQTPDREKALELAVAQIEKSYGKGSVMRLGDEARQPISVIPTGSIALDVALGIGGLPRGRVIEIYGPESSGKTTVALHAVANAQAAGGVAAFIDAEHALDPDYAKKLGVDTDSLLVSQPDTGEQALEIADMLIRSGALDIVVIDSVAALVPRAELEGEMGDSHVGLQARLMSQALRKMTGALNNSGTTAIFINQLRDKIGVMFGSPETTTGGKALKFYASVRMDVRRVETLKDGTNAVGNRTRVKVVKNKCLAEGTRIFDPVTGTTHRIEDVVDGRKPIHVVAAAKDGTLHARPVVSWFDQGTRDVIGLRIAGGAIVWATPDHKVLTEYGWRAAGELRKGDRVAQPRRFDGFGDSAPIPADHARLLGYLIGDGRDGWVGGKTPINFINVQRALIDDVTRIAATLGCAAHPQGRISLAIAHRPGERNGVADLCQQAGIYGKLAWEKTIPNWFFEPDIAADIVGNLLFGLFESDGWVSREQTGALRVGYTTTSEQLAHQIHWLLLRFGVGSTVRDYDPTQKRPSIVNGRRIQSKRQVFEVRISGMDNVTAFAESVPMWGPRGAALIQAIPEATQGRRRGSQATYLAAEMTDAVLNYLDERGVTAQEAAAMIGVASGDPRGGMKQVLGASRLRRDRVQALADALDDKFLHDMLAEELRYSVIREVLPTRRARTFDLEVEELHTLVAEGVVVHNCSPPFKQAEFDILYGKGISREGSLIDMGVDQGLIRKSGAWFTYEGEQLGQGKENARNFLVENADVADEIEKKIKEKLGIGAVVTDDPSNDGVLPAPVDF

[3] = inhibitors of intracellular T. cruzi replication, confirmation, NIH3T3 host cells, beta-gal luminescence (AID 2044); type: functional, cell-based;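 further: intracellular parasites grown in NIH/3T3 mouse fibroblasts as host cells; luminescent beta-galactosidase reporter signal from transgenic T. cruzi replicating inside host cells; inhibitors lower the luminescence signal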
[4] = biological target: Guanyl-specific ribonuclease T1 (Aspergillus oryzae (strain ATCC 42149 / RIB 40), UniProt P00651); assay: RNase T1 inhibitors, dose response, counter-screen for TPT1 inhibitor project, biochemical, fluorescence polarization, 1536-well (AID 2167)
Guanyl-specific ribonuclease T1, sequence (P00651 whole entry): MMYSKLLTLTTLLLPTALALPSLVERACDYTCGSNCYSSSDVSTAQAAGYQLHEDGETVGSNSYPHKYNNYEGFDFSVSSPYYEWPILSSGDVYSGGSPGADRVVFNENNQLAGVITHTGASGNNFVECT

[5] = cytotoxicity toward NIH3T3 fibroblasts, dose response, counter-screen, cell-based, ATP luminescence, mouse fibroblasts (AID 2010); type: functional;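 further: cells exposed to compound for about 90 hours before reading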
[6] = Artemis endonuclease inhibitor potency, dose response, biochemical, fluorescence intensity (AID 720701); type: functional;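 further: Artemis endonuclease enzyme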
[7] = biological target: Polyadenylate-binding protein 1 (Homo sapiens, UniProt P11940); assay: PABP poly(A) RNA binding inhibitors, primary screen, biochemical, fluorescence polarization, uHTS (AID 2014)
Polyadenylate-binding protein 1, sequence (P11940 whole entry): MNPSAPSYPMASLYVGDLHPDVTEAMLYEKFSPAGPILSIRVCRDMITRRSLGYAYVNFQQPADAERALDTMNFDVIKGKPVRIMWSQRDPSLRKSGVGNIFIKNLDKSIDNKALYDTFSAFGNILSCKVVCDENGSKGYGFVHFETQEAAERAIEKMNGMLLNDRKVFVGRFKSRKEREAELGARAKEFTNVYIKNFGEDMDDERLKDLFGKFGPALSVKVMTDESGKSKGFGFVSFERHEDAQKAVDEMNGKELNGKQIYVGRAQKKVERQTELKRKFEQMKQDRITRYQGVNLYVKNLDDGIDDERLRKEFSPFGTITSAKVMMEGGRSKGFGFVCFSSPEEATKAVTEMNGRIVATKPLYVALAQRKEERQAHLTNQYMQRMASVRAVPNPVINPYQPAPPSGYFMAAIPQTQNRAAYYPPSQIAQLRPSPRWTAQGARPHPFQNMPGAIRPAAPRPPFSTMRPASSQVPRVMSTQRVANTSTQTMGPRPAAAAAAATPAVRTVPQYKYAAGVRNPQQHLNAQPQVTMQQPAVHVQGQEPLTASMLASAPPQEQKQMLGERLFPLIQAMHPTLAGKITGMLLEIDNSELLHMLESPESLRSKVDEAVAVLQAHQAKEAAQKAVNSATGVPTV

[8] = biological target: Eukaryotic translation initiation factor 4H (Homo sapiens, UniProt Q15056); assay: human eIF4H binding inhibitors, primary screen, translation initiation inhibitor project, biochemical, uHTS, fluorescence polarization (AID 2012)

SMILES | AC50 [1] | IC50 [2] | EC50 (Protein RecA) | EC50 [3] | IC50 [4] | EC50 [5] | IC50 [6] | IC50 [7] | IC50 [8]
Cc1ccc2nc(N/N=C\c3ccc([N+](=O)[O-])o3)nc(-c3ccccc3)c2c1 | > 380 µM (inactive) | > 55.7 µM (not active) | 208 µM (inconclusive) | 0.176 µM (active) | > 55.7 µM (not active) | 9.01 µM (active) | > 20 µM (inactive) |  | 
O=C1C=C(NCc2ccc(Cl)cc2)CC(c2ccco2)C1 (centres undefined) |  |  |  |  |  |  |  | 64.6 µM (active) | 41.3 µM (active)
